Reference: paper PMC6274005, “Interaction of Di-2-pyridylketone 2-pyridine Carboxylic Acid Hydrazone and Its Copper Complex with BSA: Effect on Antitumor Activity as Revealed by Spectroscopic Studies” (Molecules, 2016)

Tests used:
HepG2 cells [1] = test: MTT cytotoxicity assay in the absence or presence of BSA; assay type: cell-based; details: agent-BSA 1:1, medium without FCS, 8 h incubation
Experimental: It has been reported that HSA could enhance the anti-proliferative activity of Dp44mT [13]. Thus, we examined the effect of BSA on both DPPCAH- and DPPCAH-Cu-mediated inhibition of HepG2 cells in which BSA was the main protein source in the cell culture.
Figure 1 Inhibition of proliferation of HepG2 cells by DPPCAH and DPPCAH-Cu in the absence or presence of BSA. Dpp = DPPCAH; * p < 0.01 (t-test).
A stock solution of DPPCAH (10 mM) was prepared in 80% DMSO, and was diluted to the required concentration with culture medium when used. The DPPCAH-Cu was prepared by mixing highly concentrated copper chloride with DPPCAH based on 1:1 molar ratio, and diluted to the required concentration with water. BSA was dissolved in PBS and was sterilized by filter sterilization method. HepG2 cells were cultured in RPMI-1640 medium supplemented with 10% fetal calf serum (FCS) and antibiotics. The cells collected in the exponential-phase (5 × 10^3 /mL) were seeded equivalently into a 96-well plate, followed by 6 h of incubation. […] The plate was read using a microplate reader (MK3; Thermo Fisher Scientific (Shanghai) Co. LTD, Shanghai, China) at 570 nm and the measurement of absorbance represented an estimate of the number of viable cells. Percent growth inhibition was defined as percent absorbance inhibition within appropriate absorbance in each cell line. […]

BSA [2] = target: T1, BSA (Bos taurus, UniProt P02769); test: Fluorescence quenching of BSA (Stern-Volmer, binding constants, van't Hoff thermodynamics); set-up: species or system bovine; details: for number of binding sites n per BSA / Ksv (Stern-Volmer dynamic quenching constant) / ΔH of binding to BSA / ΔS of binding to BSA / ΔG of binding to BSA: pH 7.2; for Kq (quenching rate constant of biomolecule): calculated from Ksv with τ0 = 10^−8 s; for shift of BSA fluorescence emission upon addition of the agent: fluorescence titration, CBSA = 1.0 × 10^−5 M, pH 7.2, 288 K; for ΔH of binding to BSA / ΔS of binding to BSA: van't Hoff plot; for ΔG of binding to BSA: ΔG = ΔH − TΔS
T1 sequence (P02769 25-607): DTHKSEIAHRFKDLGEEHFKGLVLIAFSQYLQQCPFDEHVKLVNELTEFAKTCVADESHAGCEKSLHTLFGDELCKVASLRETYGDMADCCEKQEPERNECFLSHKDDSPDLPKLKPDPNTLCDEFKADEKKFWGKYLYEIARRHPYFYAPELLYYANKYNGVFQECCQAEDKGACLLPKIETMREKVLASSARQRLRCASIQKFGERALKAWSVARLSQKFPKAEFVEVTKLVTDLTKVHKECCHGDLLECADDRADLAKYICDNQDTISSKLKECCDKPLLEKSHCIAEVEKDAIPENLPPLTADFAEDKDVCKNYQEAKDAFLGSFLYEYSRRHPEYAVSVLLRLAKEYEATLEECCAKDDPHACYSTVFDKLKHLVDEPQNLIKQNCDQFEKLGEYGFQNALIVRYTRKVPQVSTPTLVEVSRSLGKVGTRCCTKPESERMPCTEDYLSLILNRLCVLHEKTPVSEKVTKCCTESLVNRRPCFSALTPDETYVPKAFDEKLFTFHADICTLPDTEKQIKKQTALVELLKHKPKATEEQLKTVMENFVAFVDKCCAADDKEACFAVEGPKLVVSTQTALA
Experimental: To investigate the possible mechanism responsible for fluorescence quenching, Stern–Volmer plots were used to interpret the spectral data. The procedure of fluorescence quenching was first assumed a dynamic quenching process. The dynamic quenching constant Ksv and the apparent biomolecular quenching rate constant Kq were calculated using the Stern–Volmer equation: (1) F0/F=1+Ksv[Q]=1+Kqτ0[Q] where, F0 and F are the steady-state fluorescence intensities in the absence and presence of a quencher, respectively; [Q] is the concentration of the quencher; Ksv is the Stern–Volmer dynamic quenching rate constant; τ0 is the fluorescence lifetime of the protein without the quencher, the average life of a fluorescence molecule is 10^−8 s; and Kq is the quenching rate constant of biomolecule. […] To distinguish the quenching model, additional experiments were conducted at different temperatures, as dynamic and static quenching have different temperature dependencies. With an increase in temperature, the Ksv values decrease for static quenching, and increase for dynamic quenching. […] Kq values calculated for DPPCAH and DPPCAH-Cu ranged from 5 × 10^12~7 × 10^12, and >2 × 10^10 L·mol^−1·s^−1, respectively, which further supported the static quenching model.
For the static quenching model, important binding parameters including association constant (Ka) and number of binding sites (n) were calculated from the plots using the equation: (2) log(F0−F/F0)=log Ka+nlog[Q] where, Ka is the binding constant, and n is the number of binding sites per BSA. Ka and n were obtained from the intercept and slope of the curve. […] The number of binding sites n was 1.0418 for DPPCAH and 1.1053 for DPPCAH-Cu, or approximately 1. Thus, the association of one molecule of quencher with one molecule of protein was confirmed. […] Similar results were reported from studies analyzing interaction of eupatorin with BSA [17].
The interaction of small molecules with biomacromolecule involves hydrogen bonds, electrostatic interactions, van der Waals, and hydrophobic forces. In the present study, the nature of the interaction involved in binding was determined based on thermodynamic parameters, namely, ΔH > 0 and ΔS > 0 would imply a hydrophobic interaction, ΔH < 0 and ΔS < 0 hint imply hydrogen bonding and van der Waals interactions, and ΔH< 0 and ΔS > 0 imply electrostatic force interactions. The thermodynamic parameters were obtained using the van’t Hoff Equation (3): (3) lnK=−ΔH/RT+ΔS/R where, K is the binding constant; T is the absolute temperature; and R is the universal gas constant. ΔH and ΔS were obtained from the slope and intercept of the linear van’t Hoff plot (shown in Figure 5). The free energy change (ΔG) was estimated using the following formula: ΔG = ΔH − TΔS
(§1) For the fluorescence spectra, the excitation wavelength was set at 280 nm and the emission spectra were recorded in the range of 300 to 450 nm. Both excitation and emission slit widths were adjusted to 5 nm. […] Fluorescence emission spectra were then measured on a RF-5301 Spectrofluorophotometer (Shimadzu Scientific Instruments, Kyoto, Japan) at three different temperatures (288, 303, and 310 K). In order to calculate the peak area, the integration of spectra was done in the range of 300 to 450 nm. Synchronous fluorescence spectra were recorded by simultaneously scanning the excitation and emission monochromators, in which a constant wavelength interval was maintained between them. The wavelength interval (Δλ = λem − λex) was fixed individually at 60 nm, at which characteristic information of pertaining to Trp residues was obtained.

BSA [3] = target: T1, BSA; test: Fluorescence resonance energy transfer (FRET) between BSA and bound agent; assay type: binding, bovine; details: for r (distance from bound agent to Trp-213 residue of BSA): FRET; for R0 (critical distance at 50% energy transfer efficiency): K^2 = 2/3, N = 1.336, ф = 0.15
Experimental: Further, the distance R between the two Trp residues in BSA and the bound DPPCAH (DPPCAH-Cu) was determined using the fluorescence resonance energy transfer (FRET) method. Generally, FRET occurs whenever the emission spectrum of a fluorophore (donor) overlaps with the absorption spectrum of the bound molecule (acceptor). The efficiency of energy transfer could be used to evaluate the distance between the drug and the Trp213 residue in BSA. The relationship between the distance and efficiency of FRET is described by the following equation: (4) E=1−F/F0=R06/R06+r^6 where, r is the distance between acceptor and donor and, R0 is the critical distance when the energy transfer efficiency is 50%. The value of R0 is calculated using the following equation: (5) R=8.8×10^−25 K^2 N^−4ΦJ where, K^2 is the relative orientation of the transition dipoles of donor and acceptor (K^2 = 2/3 for a random orientation); N is the average refractive index of the medium (N = 1.336); ф is the fluorescence quantum yield of donor (ф = 0.15); J is a factor describing the spectral overlap between the emission spectrum of donor and the absorption spectrum of acceptor. J is calculated using the following equation: (6) J=∑F(λ)ε(λ)λ^4Δλ/∑F(λ)Δλ where, λ is wavelength. To calculate the distance (r), E and J value are required. These values are derived from the fluorescence data and overlapped area between the emission spectrum of BSA and the absorption spectrum of DPPCAH (or DPPCAH-Cu) as shown in Figure 6a (or Figure 6b) after normalization. The experimental value for the efficiency to be used in Equation (4) was estimated by measuring the fluorescence at equal protein-ligand concentration as described in [27].
Absorbance spectrum of DPPCAH and DPPCAH-Cu were recorded on a UV-2450 spectrophotometer (Shimadzu (Suzhou) Co. Ltd., Suzhou, China) within the UV region in the range of 300 to 450 nm. Final concentrations of the agents concentration used for measurements were 10 μM (in Tris-HCl buffer, pH 7.2).
For the fluorescence spectra, the excitation wavelength was set at 280 nm and the emission spectra were recorded in the range of 300 to 450 nm. Both excitation and emission slit widths were adjusted to 5 nm. In this assay, 4.0 mL of BSA solution at a fixed concentration of […] was accurately added into the quartz cell (1 cm path length), and was manually titrated by successive additions of 10 mM DPPCAH (or DPPCAH-Cu) at intervals of 5 min. Fluorescence emission spectra were then measured on a RF-5301 Spectrofluorophotometer (Shimadzu Scientific Instruments, Kyoto, Japan) at three different temperatures (288, 303, and 310 K). In order to calculate the peak area, the integration of spectra was done in the range of 300 to 450 nm. Synchronous fluorescence spectra were recorded by simultaneously scanning the excitation and emission monochromators, in which a constant wavelength interval was maintained between them. The wavelength interval (Δλ = λem − λex) was fixed individually at 60 nm, at which characteristic information of pertaining to Trp residues was obtained.

BSA [4] = target: T1, BSA; test: Synchronous fluorescence spectra of BSA (Δλ = 60 nm); assay type: binding, bovine; details: CBSA = 10.0 μM, 288 K
Experimental: The bathochromic (or […]) shift noticed during fluorescence titration of BSA with the reagents, implied potent changes in the environment of Trp residues. To confirm these environmental changes, synchronous fluorescence spectra were recorded, because this technique yields information pertaining to the change in the polarity of the microregion near fluorophore molecules. By using different D-value (Δλ) between the excitation and emission wavelength, fluorescence contributors from different aromatic amino acids in the protein can be identified. When Δλ is stabilized at 60 nm, synchronous fluorescence spectroscopy provides the characteristic information specific to Trp residues. […] Although DPPCAH and DPPCAH-Cu could bind BSA, they induced different effects in BSA.
as §1

HepG2 cells [5] = system: HepG2 cells; set-up: method as in PMID 26398524; details: cited from earlier work
BSA [6] = target: T1, BSA; test: Circular dichroism spectra of BSA, secondary structure simulated with K2D2; set-up: species or system bovine; details: molar ratio drug/protein = 2; CBSA = 15 μM; K2D2 simulation of CD data
Experimental: A direct calculation of secondary structures using experimental data was employed, but owing to the larger errors, the K2D2 software was used to simulate the experimental data of CD in the present study. The simulated curves are represented in the Supplementary Materials (Figure S1). In the absence of DPPCAH, the α-helix and β-sheet of BSA were 52% and 8.29% respectively.
BSA CD spectra in the range of 190–250 nm were recorded on a Chirascan (Applied Photophysics Ltd., Surrey, UK) with a 1.0 cm quartz cell in nitrogen atmosphere. BSA CD measurements in the presence and absence of DPPCAH (or DPPCAH-Cu) were performed with a scan rate of 50 nm/min. The A stock solution of 1.5 × 10^−5 M BSA was prepared in PBS. A 10 mM stock solution of DPPCAH was prepared in DMSO and the stock solution was diluted to 1.5 mM with water for measurements. Similarly, a solution of DPPCAH-Cu was prepared by mixing the DPPCAH solution with higher concentration of CuCl2 in water. The BSA concentration was held constant, while the DPPCAH concentration was varied (0, 1.5, 3.0 × 10^−5 M). The final concentration of DMSO in the measurements was less 0.5%. The buffer solution was chosen as the blank, and was manually subtracted from each spectrum during scanning. Each sample was scanned three times and the average was recorded for the CD spectrum.

[7] = 303 K (first value of the printed decrease with increasing temperature)
[8] = 310 K (second value of the printed decrease with increasing temperature)

Molecule | number of binding sites n per BSA (BSA [2]; 288 K, CBSA = 10 μM) | Ksv (Stern-Volmer dynamic quenching constant) (BSA [2]; [7]) | Ksv (Stern-Volmer dynamic quenching constant) (BSA [2]; [8]) | Kq (quenching rate constant of biomolecule) (BSA [2]) | shift of BSA fluorescence emission upon addition of the agent (BSA [2]) | ΔH of binding to BSA (BSA [2]; 288 K) [kcal/mol] | ΔS of binding to BSA (BSA [2]; 288 K) [J/mol·K] | ΔG of binding to BSA (BSA [2]; 288 K) [kcal/mol] | r (distance from bound agent to Trp-213 residue of BSA) (BSA [3]) [nm] | R0 (critical distance at 50% energy transfer efficiency) (BSA [3]) [nm] | decrease of fluorescence intensity of Trp residue (BSA [4]) [%] | shift of maximum emission wavelength of Trp in synchronous fluorescence (BSA [4]) | also measured
O=C(NN=C(c1ccccn1)c1ccccn1)c1ccccn1 [DPPCAH, di-2-pyridylketone-2-pyridine carboxylic acid hydrazone] | 1.0418 | 7.0 × 10^4 | 5.08 × 10^4 | 5 × 10^12~7 × 10^12 L·mol^−1·s^−1 | bathochromic red shift | -11.23 | −60.0 | -7.096 | 2.03 | 2.35 | 55 | significant red shift | effect of BSA on growth inhibition of HepG2 cells mediated by the agent (HepG2 cells [1]): attenuated the growth inhibition; IC50 (HepG2 cells [5]; read-out: IC50, growth inhibition of HepG2 cells): 4.6 ± 0.2 µM
Copper complex of di-2-pyridylketone 2-pyridinecarboxylic acid hydrazone [DPPCAH-Cu] | 1.1053 | 5.47 × 10^4 | 4.9 × 10^4 | > 2e+10 L/mol/s | blue shift | -9.218 | −41.5 | -6.36 | 2.32 | 2.7 | 50 | blue shift | Ka (association constant with BSA) (BSA [2]; 288 K, CBSA = 10 μM, pH 7.2 (10 mM Tris-HCl)): 6.56 ×10^4; binding energy obtained from fluorescence quenching (BSA [2]; at 288 K, quoted for comparison with docking): -7.1 kcal/mol; R0 (critical distance at 50% energy transfer efficiency) (BSA [3]; listed as BSA-DPPCAH-Cu): 2.70 nm; J (spectral overlap of BSA emission and agent absorption) (BSA [3]; calculated from spectra): 1.7e-14 cm^3·L·mol^-1; decrease in α-helix of BSA (BSA [6]): 3.5%; increase in β-sheet of BSA (BSA [6]): 1.45%; antitumor activity compared with DPPCAH (HepG2 cells [5]): significantly enhanced the antitumor activity
